Results published in paper PMC11054459 (Molecules, 2024).
Residues, ends and D or L forms follow the SMILES beside them. No end group written: not given here. *: point of attachment. X1 = NC(=O)C[C@H](N=C[C@H](O)[C@@H](O)[C@@H](O)[C@H](O)CO)C(=O)*; X2 = NC(=O)C[C@H](N=C[C@H](O)[C@@H](O)[C@H](O)[C@H](O)CO)C(=O)*

Columns and labels:
mouse PD-L1 (mPD-L1) = mouse PD-L1 (mPD-L1) (Mus musculus, UniProt Q9EP73); experiment: MST binding assay, mPD-L1; settings: microscale thermophoresis (MST); mPD-L1-His 800 nM, RED-NHS dye, PBST; peptide 400 μM to 0.012 μM; triplicate, mean ± SEM; read-out: dissociation constant (KD), mPD-L1
Procedure: The concentrations of hPD-L1-His and mPD-L1-His proteins were adjusted to 200 nM and 800 nM, respectively, utilizing PBST as the diluent. Simultaneously, the concentration of RED-NHS676 dye was diluted to 100 nM in PBST. Subsequently, protein and dye were subjected to co-incubation at a volumetric ratio of 1:1 for a duration of 30 min, thereby facilitating the generation of labeled proteins. To establish peptide gradients, a progressive dilution was initiated from an initial concentration of 400 μM, eventually reaching 0.012 μM. Following this preparation, a homogenous amalgamation comprising 5 μL of labeled protein and 5 μL of small molecule diluent was extracted for further experimentation. Subsequently, the samples were transferred to standard capillary tubes and analyzed by an MST instrument (Nano Temper, Monolith NT.115, München, Germany).

[1] = Body weight of MC38 tumor-bearing mice; assay type: in vivo, mouse; settings: 1 and 3 mg/kg i.p. once daily for two weeks
Procedure: Animal experiments were approved by the Zhengzhou University Ethics Committee. MC38 cells (1 × 10^6) were subcutaneously inoculated into C57BL/N mice. The MC38 tumor-bearing mice were randomly allocated to three groupsn (n = 5 per group): a control group (NS, normal saline containing 1% DMSO); a D-gal-^LPPA-1 peptide group (1 mg/kg); and a D-gal-^LPPA-1 peptide group (3 mg/kg). Daily intraperitoneal injections of the peptide were initiated when the tumor volume reached 50–90 mm^3. The tumor dimensions, including length, width, and height, were measured, and tumor volume was calculated using the following formula:V = 1/2 × A (length) × B (width) × C (height).

[2] = test system: heart, liver, spleen, lung, kidney of MC38 tumor-bearing mice; experiment: H&E staining of major organs; assay type: in vivo, mouse; settings: 1 and 3 mg/kg i.p., vs. normal saline control
Procedure: Tumor tissue and heart, liver, spleen, lung, and kidney tissues were isolated from MC38 tumor-bearing mice and fixed in 4.0% paraformaldehyde. The samples were subsequently embedded in paraffin and subjected to hematoxylin and eosin staining. The results were analyzed using ImageJ1 software (NIH, Bethesda, MD, USA).

[3] = molecular target: hPD-1/hPD-L1 interaction (CHO-K1-hPD-1 cells, hPD-L1 protein) (Homo sapiens, UniProt Q9NZQ7); experiment: Peptide blocking assay (flow cytometry); assay type: cell-based; settings: CHO-K1-hPD-1 cells 3 × 10^5 per sample, 50 ng hPD-L1, peptide + protein 30 min, + cells 30 min, on ice, 200 μM to 1.6 μM, means ± SEMs from three independent biological triplicates, read-out: IC50, blocking of PD-1/PD-L1 interaction
Procedure: The interaction between PD-1 and PD-L1 plays a pivotal role in suppressing T-cell function, and disrupting this interaction has emerged as a viable therapeutic strategy in cancer treatment. Thus, we investigated the inhibitory potential of D-glu-^LPPA-1 and D-gal-^LPPA-1 on the PD-1/PD-L1 interaction. To conduct the experiment, CHO-K1-hPD-1 cells were harvested at a density of 3 × 10^5 cells per sample. Peptides were solubilized to a concentration of 200 μM and serially diluted before coincubation with 50 ng of the hPD-L1 protein for 30 min. The protein–peptide mixture was introduced into CHO-K1-hPD-1 cells, which were then coincubated for an additional 30 min. The anti-Fc PE antibody was then added and incubated for 30 min. Flow cytometry was used to evaluate the efficacy of the peptides in blocking the hPD-1/hPD-L1 interaction.
For subsequent multi-concentration blocking assays, peptides were prepared in concentration gradients spanning 200 μM, 100 μM, 50 μM, 25 μM, 12.5 μM, and 6.25 μM. Peptides at different concentrations were incubated with hPD-L1 (mPD-L1) protein (50 ng) on ice for 30 min. Subsequently, the mixture was added to CHO-K1-hPD-1 or CHO-K1-mPD-1 cells and coincubated on ice for 30 min. […] The ability of the peptide to block the PD-1/PD-L1 interaction was assessed using flow cytometry.

hPD-L1-Fc = molecular target: T1, hPD-L1-Fc (human, UniProt Q9NZQ7 19-238); experiment: flow cytometry on cells; blocking assay: peptide in serial dilution from 200 μM pre-incubated with 50 ng hPD-L1-Fc on ice for 30 min, mixture added to CHO-K1-hPD-1 cells (3 x 10^5 per sample) for 30 min, detected with anti-Fc PE antibody; settings: both partners purified
T1 construct: human PD-L1 (hPD-L1), recombinant protein fused to Fc; also called hPD-L1 protein

hPD-L1-His = hPD-L1-His (human, UniProt Q9NZQ7 19-290, labelled with RED-NHS676 dye); experiment: MST; His-tagged PD-L1 (hPD-L1 200 nM, mPD-L1 800 nM) labelled 1:1 with 100 nM RED-NHS676 dye in PBST for 30 min; peptide diluted from 400 μM to 0.012 μM; standard capillaries, Monolith NT.115; settings: both partners purified
mPD-L1-His = mPD-L1-His (mouse, UniProt Q9EP73 19-290, labelled with RED-NHS676 dye); experiment: as above; settings: both partners purified
Sequence of mPD-L1-His (Q9EP73 19-290): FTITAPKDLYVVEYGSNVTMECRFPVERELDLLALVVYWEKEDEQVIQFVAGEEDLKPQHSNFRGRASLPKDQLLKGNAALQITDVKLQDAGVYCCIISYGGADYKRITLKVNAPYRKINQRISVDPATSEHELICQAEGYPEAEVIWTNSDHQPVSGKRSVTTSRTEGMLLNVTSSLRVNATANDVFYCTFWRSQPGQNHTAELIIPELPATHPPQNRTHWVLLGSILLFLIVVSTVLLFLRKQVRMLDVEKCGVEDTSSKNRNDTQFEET

T1 sequence (Q9NZQ7 19-238): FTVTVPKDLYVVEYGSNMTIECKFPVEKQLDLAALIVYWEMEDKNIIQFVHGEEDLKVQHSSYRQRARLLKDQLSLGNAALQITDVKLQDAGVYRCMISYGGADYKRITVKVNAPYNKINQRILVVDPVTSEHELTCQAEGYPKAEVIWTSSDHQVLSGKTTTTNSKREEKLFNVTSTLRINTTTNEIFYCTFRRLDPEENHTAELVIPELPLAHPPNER
Sequence of hPD-1/hPD-L1 interaction (CHO-K1-hPD-1 cells, hPD-L1 protein) (Q9NZQ7 19-238 limits assumed): as the sequence (Q9NZQ7 19-238) above
Sequence of mouse PD-L1 (mPD-L1) (Q9EP73 19-290): as the sequence (Q9EP73 19-290) above
Sequence of hPD-L1-His (Q9NZQ7 19-290): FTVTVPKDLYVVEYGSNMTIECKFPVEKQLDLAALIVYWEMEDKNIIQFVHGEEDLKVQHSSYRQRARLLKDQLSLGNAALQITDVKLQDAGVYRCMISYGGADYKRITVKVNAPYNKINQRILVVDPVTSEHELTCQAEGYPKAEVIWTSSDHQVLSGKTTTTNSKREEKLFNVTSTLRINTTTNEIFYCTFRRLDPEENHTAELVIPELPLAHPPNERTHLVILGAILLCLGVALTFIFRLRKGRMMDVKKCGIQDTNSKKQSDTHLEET

For `C[C@@H](O)[C@H](NC(=O)[C@@H]1CCCN1C(=O)[C@H](CCCCN)NC(=O)[C@H](CO)NC(=O)[C@H](Cc1ccc(O)cc1)NC(=O)[C@H](CC(N)=O)N=C[C@H](O)[C@@H](O)[C@@H](O)[C@H](O)CO)C(=O)N[C@@H](CC(=O)O)C(=O)N[C@@H](CCCNC(=N)N)C(=O)N[C@@H](CCC(N)=O)C(=O)N[C@@H](Cc1ccc(O)cc1)C(=O)N[C@@H](Cc1c[nH]cn1)C(=O)N[C@@H](Cc1ccccc1)C(=O)O` [D-gal-^LPPA-1] (X1-YSKPTDRQYHF-OH), the Kd (mouse PD-L1 (mPD-L1)) was 0.015 ± 0.006 µM, the body weight [1] was “no significant changes in body weight” and the “organ toxicity (H&E staining)” value [2] was “no apparent toxicity observed”.

Work on `C[C@@H](O)[C@H](NC(=O)[C@@H]1CCCN1C(=O)[C@H](CCCCN)NC(=O)[C@H](CO)NC(=O)[C@H](Cc1ccc(O)cc1)NC(=O)[C@H](CC(N)=O)N=C[C@H](O)[C@@H](O)[C@H](O)[C@H](O)CO)C(=O)N[C@@H](CC(=O)O)C(=O)N[C@@H](CCCNC(=N)N)C(=O)N[C@@H](CCC(N)=O)C(=O)N[C@@H](Cc1ccc(O)cc1)C(=O)N[C@@H](Cc1c[nH]cn1)C(=O)N[C@@H](Cc1ccccc1)C(=O)O` [D-glu-^LPPA-1] (X2-YSKPTDRQYHF-OH) yielded an IC50 [3] of 75.5 ± 20.3 µM.

B1: D-glu-^LPPA-1 (peptide)
peptide: N(D‑glucose)YSKPTDRQYHF
notes: L-type peptide ^LPPA-1, L-amino-acid analogue of the PD-L1-targeting D-peptide ^DPPA-1; printed in three-letter code; source: synthetic peptide (Fmoc solid-phase synthesis, purified by reverse-phase HPLC)
For B1, the IC50 (hPD-L1-Fc) was 75 µM.

B2: D-gal-^LPPA-1 (peptide)
peptide: N(D‑galactose)YSKPTDRQYHF
notes: as for B1
B2 gave a Kd (hPD-L1-His) of 0.047 µM, a Kd (mPD-L1-His) of 0.0149 µM and an IC50 (hPD-L1-Fc) of 101 µM.
